The values that follow come from US11053225B2, “Pyrimidine derivative compound, optical isomer thereof, or pharmaceutically acceptable salt thereof, and composition for preventing or treating Tyro 3 related disease comprising same as active ingredient” (KOREA RESEARCH INSTITUTE OF CHEMICAL TECHNOLOGY, priority 2017, dated 2021).

For orientation: IC50 means the concentration needed to halve the response being measured.

The target of the first data set is hERG (Homo sapiens (Human), UniProt Q12809). Description: human ether-a-go-go-related gene (hERG) assay.
hERG, sequence (Q12809 whole entry): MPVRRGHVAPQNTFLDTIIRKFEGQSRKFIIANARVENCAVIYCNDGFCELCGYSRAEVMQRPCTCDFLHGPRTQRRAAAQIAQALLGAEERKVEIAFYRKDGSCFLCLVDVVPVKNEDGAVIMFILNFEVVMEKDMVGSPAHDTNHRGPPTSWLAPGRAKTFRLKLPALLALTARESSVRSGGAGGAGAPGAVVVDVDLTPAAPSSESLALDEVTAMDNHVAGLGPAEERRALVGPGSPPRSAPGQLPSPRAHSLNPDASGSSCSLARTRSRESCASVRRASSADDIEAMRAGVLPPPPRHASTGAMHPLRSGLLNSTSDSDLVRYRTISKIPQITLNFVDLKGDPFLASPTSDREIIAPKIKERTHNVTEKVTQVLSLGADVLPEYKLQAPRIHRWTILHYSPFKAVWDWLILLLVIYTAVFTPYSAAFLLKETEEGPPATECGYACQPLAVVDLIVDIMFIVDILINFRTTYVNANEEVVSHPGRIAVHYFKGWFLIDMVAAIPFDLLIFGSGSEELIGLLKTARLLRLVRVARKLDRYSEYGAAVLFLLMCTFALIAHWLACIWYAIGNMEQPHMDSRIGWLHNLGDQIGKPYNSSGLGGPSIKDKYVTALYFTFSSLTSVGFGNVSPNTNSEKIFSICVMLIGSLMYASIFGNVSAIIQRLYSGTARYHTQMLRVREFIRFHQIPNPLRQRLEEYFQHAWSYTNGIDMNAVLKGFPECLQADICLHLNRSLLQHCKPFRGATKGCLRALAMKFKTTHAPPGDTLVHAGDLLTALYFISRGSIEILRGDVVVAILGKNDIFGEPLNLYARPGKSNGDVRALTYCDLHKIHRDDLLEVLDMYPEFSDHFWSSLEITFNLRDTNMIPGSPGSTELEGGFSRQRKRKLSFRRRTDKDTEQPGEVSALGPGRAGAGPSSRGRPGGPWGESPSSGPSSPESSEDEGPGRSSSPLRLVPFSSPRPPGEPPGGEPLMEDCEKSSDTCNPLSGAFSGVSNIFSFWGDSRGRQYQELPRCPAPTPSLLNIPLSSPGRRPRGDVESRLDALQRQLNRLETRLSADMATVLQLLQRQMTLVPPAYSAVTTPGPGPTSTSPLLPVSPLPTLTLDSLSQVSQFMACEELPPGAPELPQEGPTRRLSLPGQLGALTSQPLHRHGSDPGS
Details: not given
As for the experimental part:
In the development of medicines, drug toxicity as well as therapeutic effects plays an important role. One of the most commonly used criteria for determining drug toxicity is human ether-a-go-go-related gene (hERG) toxicity. Most pharmaceutical companies determine a drug showing a hERG IC50 value of less than 0.1 μM to be highly toxic, and thus stop the development of the drug. Whereas, the companies determine a drug showing a hERG IC50 value of 10 μM or more to be non-toxic.
For investigation of the degree of drug toxicity by TAM receptor inhibiting compounds of the present invention, human ether-a-go-go-related gene (hERG) assay was performed on Compounds 29, 60, 73, 75, 84, 89, and 132 on Table 4.
On the technique in general: Block of hERG is tested as a sign of cardiac risk.
Consider `Clc1cc(Cl)cc(Nc2ncc(-c3cnn(C4CCNCC4)c3)c(NC3CCNCC3)n2)c1` [Compound 73, N2-(3,5-dichlorophenyl)-N4-(piperidin-4-yl)-5-(1-(piperidin-4-yl)-1H-pyrazol-4-yl)pyrimidine-2,4-diamine], for which the IC50 was no less than 50 µM. `OCCn1cc(-c2cnc(Nc3cc(Cl)cc(Cl)c3)nc2NC2CCNCC2)cn1` [Compound 75, 2-(4-(2-(3,5-dichlorophenylamino)-4-(piperidin-4-ylamino)pyrimidin-5-yl)-1H-pyrazol-1-yl)ethanol] yielded an IC50 of no less than 50 µM. Compound `Cn1cc(-c2cnc(Nc3cc(Cl)cc(Cl)c3)nc2NC2CCNCC2)cn1` [Compound 29, N2-(3,5-dichlorophenyl)-5-(1-methyl-1H-pyrazol-4-yl)-N4-(piperidin-4-yl)pyrimidine-2,4-diamine] gave an IC50 of no more than 1 µM. Same read-out and setting: the value for `COc1cccc(-c2cnc(Nc3cc(Cl)cc(Cl)c3)nc2NC2CCNCC2)c1` [Compound 60, N2-(3,5-dichlorophenyl)-5-(3-methoxyphenyl)-N4-(piperidin-4-yl)pyrimidine-2,4-diamine] was no more than 1 µM.

Still in this data set, the particulars now being: result in words.
On to `OCCn1cc(-c2cnc(Nc3cc(Cl)cc(Cl)c3)nc2Nc2ccc3c(c2)CNCC3)cn1` [Compound 89, 2-(4-(2-(3,5-dichlorophenylamino)-4-(1,2,3,4-tetrahydroisoquinolin-7-ylamino)pyrimidin-5-yl)-1H-pyrazol-1-yl)ethanol], for which the hERG toxicity result is “no hERG toxicity”. Turning to `Cn1cc(-c2cnc(Nc3cc(Cl)cc(Cl)c3)nc2Nc2ccc3c(c2)CNCC3)cn1` [Compound 84, N2-(3,5-dichlorophenyl)-5-(1-methyl-1H-pyrazol-4-yl)-N4-(1,2,3,4-tetrahydroisoquinolin-7-yl)pyrimidine-2,4-diamine], the hERG toxicity entry was “no hERG toxicity”.

For `Clc1cc(Cl)cc(Nc2ncc(-c3cnn(C4CCNCC4)c3)c(Nc3ccc4c(c3)CNCC4)n2)c1` [Compound 132, N2-(3,5-dichlorophenyl)-5-(1-(piperidin-4-yl)-1H-pyrazol-4-yl)-N4-(1,2,3,4-tetrahydroisoquinolin-7-yl)pyrimidine-2,4-diamine], the hERG toxicity entry is listed as “no hERG toxicity”.

In another data set the target is Axl (Homo sapiens (Human), UniProt P30530). Nature of the data set: Axl kinase inhibition assay (Cisbio method, Eu-labeled antibody to phosphorylated peptide). The conditions noted are these: read-out: IC50 (μM) Axl; 1 hour reaction with substrate peptide and ATP.
Axl, sequence (P30530 26-894): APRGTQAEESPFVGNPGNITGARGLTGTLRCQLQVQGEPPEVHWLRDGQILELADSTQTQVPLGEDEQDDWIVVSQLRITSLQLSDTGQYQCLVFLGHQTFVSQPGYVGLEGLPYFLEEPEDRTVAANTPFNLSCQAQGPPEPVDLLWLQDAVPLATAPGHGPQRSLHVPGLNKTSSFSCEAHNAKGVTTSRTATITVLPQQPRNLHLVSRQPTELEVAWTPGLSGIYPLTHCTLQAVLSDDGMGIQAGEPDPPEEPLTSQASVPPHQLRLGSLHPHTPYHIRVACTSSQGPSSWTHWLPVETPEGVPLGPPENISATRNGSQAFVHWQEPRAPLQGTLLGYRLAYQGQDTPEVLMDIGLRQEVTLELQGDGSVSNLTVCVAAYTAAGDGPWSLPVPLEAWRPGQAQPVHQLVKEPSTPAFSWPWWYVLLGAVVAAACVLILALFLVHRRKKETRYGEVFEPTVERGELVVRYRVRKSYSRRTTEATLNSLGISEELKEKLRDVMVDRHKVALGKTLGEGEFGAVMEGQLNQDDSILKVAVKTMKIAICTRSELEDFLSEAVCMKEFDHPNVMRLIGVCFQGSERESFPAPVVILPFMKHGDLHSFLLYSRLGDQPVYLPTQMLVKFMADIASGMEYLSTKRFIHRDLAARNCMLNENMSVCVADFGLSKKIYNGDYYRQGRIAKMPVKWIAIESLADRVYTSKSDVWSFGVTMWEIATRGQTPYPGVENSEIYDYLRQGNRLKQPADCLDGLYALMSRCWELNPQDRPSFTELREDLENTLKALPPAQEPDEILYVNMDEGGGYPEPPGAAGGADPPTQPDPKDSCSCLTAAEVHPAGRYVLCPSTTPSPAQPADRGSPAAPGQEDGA
Procedure: For evaluation of inhibitory activities of the compounds according to the present invention on Tyro 3, Axl, and Mer, the following test was carried out.
The specific test method followed the method provided by Cisbio. The compounds of the examples were prepared at various concentrations, followed by addition of Tyro 3, Axl, or Mer and substrate peptides, and then ATP was added to initiate a reaction. After 1 hour, the reaction was stopped by addition of a solution containing EDTA. Thereafter, the amount of phosphorylated peptides was measured. Here, the phosphorylated peptides were treated with an europium (Eu)-labeled antibody recognizing phosphorylated peptides, and then after 1 hour, excited by irradiation of the light of a wavelength of 320 or 340 nm using an Envision Reader.
Consider `Cc1ccc(Nc2ncc(-c3ccc(C)cc3)c(NC3CCCCC3)n2)cc1` [Compound 2, N4-cyclohexyl-N2,5-di-(p-tolyl)pyrimidine-2,4-diamine], for which the IC50 is greater than 10 µM.

As for `COc1cc(Nc2ncc(-c3cnn(C)c3)c(Nc3ccc4c(c3)CN(C(=O)C(F)(F)F)CC4)n2)cc(OC)c1` [Compound 138, 1-(7-(2-(3,5-dimethoxyphenylamino)-5-(1-methyl-1H-pyrazol-4-yl)pyrimidin-4-ylamino)-3,4-dihydroisoquinolin-2(1H)-yl)-2,2,2-trifluoroethan-1-one], the IC50 is greater than 10 µM. Take `Clc1cc(Cl)cc(Nc2ncc(-c3ccoc3)c(NC3CCCCC3)n2)c1` [Compound 15, N4-cyclohexyl-N2-(3,5-dichlorophenyl)-5-(furan-3-yl)pyrimidine-2,4-diamine]: the IC50 was greater than 10 µM. For the compound `COc1ccc(Nc2ncc(-c3cnn(C)c3)c(NC3CCNCC3)n2)cc1` [Compound 47, N2-(4-methoxyphenyl)-5-(1-methyl-1H-pyrazol-4-yl)-N4-(piperidin-4-yl)pyrimidine-2,4-diamine], the IC50 is greater than 10 µM.

Turning to `Cc1ccc(Nc2ncc(-c3ccoc3)c(NC3CCN(C(=O)C(F)(F)F)CC3)n2)cc1` [Compound 49, 1-(4-(2-(p-toluidino)-5-(furan-3-yl)pyrimidin-4-ylamino)piperidin-1-yl)-2,2,2-trifluoroethanone], the IC50 is greater than 10 µM. Still for that read-out and setting: the value for `Cn1cc(-c2cnc(NC34CC5CC(CC(C5)C3)C4)nc2NC2CCCCC2)cn1` [Compound 23, N4-cyclohexyl-N2-adamantyl-5-(1-methyl-1H-pyrazol-4-yl)pyrimidine-2,4-diamine] was greater than 10 µM. Take `O=C(N1CCc2ccc(Nc3nc(Nc4cccc(Cl)c4Cl)ncc3-c3cnn(CCO)c3)cc2C1)C(F)(F)F` [Compound 125, 1-(7-(2-(2,3-dichlorophenylamino)-5-(1-(2-hydroxyethyl)-1H-pyrazol-4-yl)pyrimidin-4-ylamino)-3,4-dihydroisoquinolin-2(1H)-yl)-2,2,2-trifluoroethanone]: the IC50 was greater than 10 µM.

For `COc1ccc(Nc2ncc(-c3ccc(OC)c(OC)c3)c(NC3CCN(C(=O)C(F)(F)F)CC3)n2)cc1` [Compound 64, 1-(4-(5-(3,4-dimethoxyphenyl)-2-(4-methoxyphenylamino)pyrimidin-4-ylamino)piperidin-1-yl)-2,2,2-trifluoroethanone], the IC50 is greater than 10 µM.

With `COc1ccc(-c2cnc(Nc3cccc(Cl)c3)nc2NC2CCN(C(=O)C(F)(F)F)CC2)cc1OC` [Compound 69, 1-(4-(2-(3-chlorophenylamino)-5-(3,4-dimethoxyphenyl)pyrimidin-4-ylamino)piperidin-1-yl)-2,2,2-trifluoroethanone], the IC50 is greater than 10 µM. For the compound `O=C(N1CCC(Nc2nc(Nc3cc(Cl)cc(Cl)c3)ncc2-c2cnn(CCO)c2)CC1)C(F)(F)F` [Compound 71, 1-(4-(2-(3,5-dichlorophenylamino)-5-(1-(2-hydroxyethyl)-1H-pyrazol-4-yl)pyrimidin-4-ylamino)piperidin-1-yl)-2,2,2-trifluoroethanone], the 50% inhibitory concentration (IC50) is greater than 10 µM. Turning to `Cn1cc(-c2cnc(Nc3ccc4c(c3)CN(C(=O)C(F)(F)F)CC4)nc2N[C@H]2CC[C@@H](NC(=O)C(F)(F)F)CC2)cn1` [Compound 86, N-((1s,4s)-4-(5-(1-methyl-1H-pyrazol-4-yl)-2-(2-(2,2,2-trifluoroacetyl)-1,2,3,4-tetrahydroisoquinolin-7-ylamino)pyrimidin-4-ylamino)cyclohexyl)-2,2,2-trifluoroacetamide], the IC50 is greater than 10 µM. `COc1ccc(Nc2ncc(-c3cnn(C)c3)c(NC3CCN(C(=O)C(F)(F)F)CC3)n2)cc1` [Compound 44, 1-(4-(2-(4-methoxyphenylamino)-5-(1-methyl-1H-pyrazol-4-yl)pyrimidin-4-ylamino)piperidin-1-yl)-2,2,2-trifluoroethanone]: the half-inhibitory concentration (IC50) is greater than 10 µM. On to `O=C(NC1CCC(Nc2nc(Nc3cc(Cl)cc(Cl)c3)ncc2-c2cnn(C3CCNCC3)c2)CC1)C(F)(F)F` (stereo not shown) [Compound 122, 1-(4-(2-(3,5-dichlorophenylamino)-5-(1-(piperidin-4-yl)-1H-pyrazol-4-yl)pyrimidin-4-ylamino)cyclohexyl)-2,2,2-trifluoroacetamide], for which the IC50 was greater than 10 µM. Take `Cn1cc(-c2cnc(Nc3ccc4c(c3)CNCC4)nc2N[C@H]2CC[C@@H](N)CC2)cn1` [Compound 88, N4-((1s,4s)-4-aminocyclohexyl)-5-(1-methyl-1H-pyrazol-4-yl)-N2-(1,2,3,4-tetrahydroisoquinolin-7-yl)pyrimidin-2,4-diamine]: the IC50 is greater than 10 µM. Regarding `Cc1ccc(Nc2ncc(-c3ccoc3)c(NC3CCCCC3)n2)cc1` [Compound 14, N4-cyclohexyl-5-(furan-3-yl)-N2-(p-tolyl)pyrimidine-2,4-diamine], the IC50 was greater than 10 µM. Turning to `Cn1cc(-c2cnc(NCCc3ccncc3)nc2NC2CCCCC2)cn1` [Compound 17], the IC50 was greater than 10 µM.

For `Cn1cc(-c2cnc(Nc3ccc4c(c3)CN(C(=O)C(F)(F)F)CC4)nc2NC2CCN(C(=O)C(F)(F)F)CC2)cn1` [Compound 70, 1-(4-(5-(1-methyl-1H-pyrazol-4-yl)-2-(2-(2,2,2-trifluoroacetyl)-1,2,3,4-tetrahydroisoquinolin-7-ylamino)pyrimidin-4-ylamino)piperidin-1-yl)-2,2,2-trifluoroethanone], the half-inhibitory concentration (IC50) was greater than 10 µM.

For the compound `O=C(N1CCc2ccc(Nc3nc(Nc4cc(C(F)(F)F)cc(C(F)(F)F)c4)ncc3-c3cnn(CCO)c3)cc2C1)C(F)(F)F` [Compound 124, 1-(7-(2-(3,5-bis(trifluoromethyl)phenylamino)-5-(1-(2-hydroxyethyl)-1H-pyrazol-4-yl)pyrimidin-4-ylamino)-3,4-dihydroisoquinolin-2(1H)-yl)-2,2,2-trifluoroethanone], the IC50 is greater than 10 µM. For the compound `Cc1cc(Nc2ncc(-c3cnn(C)c3)c(NC3CCN(C(=O)C(F)(F)F)CC3)n2)ccc1Cl` [Compound 43, 1-(4-(2-(3-methyl-4-chlorophenylamino)-5-(1-methyl-1H-pyrazol-4-yl)pyrimidin-4-ylamino)piperidin-1-yl)-2,2,2-trifluoroethanone], the IC50 is greater than 10 µM. `Cn1cc(-c2cnc(Nc3ccccc3)nc2NC2CCCCC2)cn1` [Compound 6, N4-cyclohexyl-5-(1-methyl-1H-pyrazol-4-yl)-N2-phenylpyrimidine-2,4-diamine]: the IC50 is greater than 10 µM. Consider `COc1ccccc1Nc1ncc(-c2ccc(OC)c(OC)c2)c(NC2CCNCC2)n1` [Compound 68, 5-(3,4-dimethoxyphenyl)-N2-(2-methoxyphenyl)-N4-(piperidin-4-yl)pyrimidine-2,4-diamine], for which the IC50 was greater than 10 µM.

As for `Cc1cccc(Nc2ncc(-c3ccoc3)c(NC3CCN(C(=O)C(F)(F)F)CC3)n2)c1` [Compound 50, 1-(4-(2-(m-toluidino)-5-(furan-3-yl)pyrimidin-4-ylamino)piperidin-1-yl)-2,2,2-trifluoroethanone], the IC50 was greater than 10 µM.

Take `Cn1cc(-c2cnc(Nc3cc(C(F)(F)F)cc(C(F)(F)F)c3)nc2Nc2ccc3c(c2)CNCC3)cn1` [Compound 136, N2-(3,5-bis(trifluoromethyl)phenyl)-5-(1-methyl-1H-pyrazol-4-yl)-N4-(1,2,3,4-tetrahydroisoquinolin-7-yl)pyrimidine-2,4-diamine]: the IC50 was greater than 10 µM. On the same count and under the same terms, the value for `COc1ccc(Nc2ncc(-c3cnn(C)c3)c(NC3CCCCC3)n2)cc1Cl` [Compound 9, N2-(3-chloro-4-methoxyphenyl)-N4-cyclohexyl-5-(1-methyl-1H-pyrazol-4-yl)pyrimidine-2,4-diamine] was greater than 10 µM.
